Experimental data reported in patent US11866704B2, “Nucleic acid molecules and uses thereof” (Macau University of Science and Technology, priority 2020, dated 2024).
[s4U] = 4-thiouridine base; m = 2'-O-methyl; r = 2'-OH (RNA)

Assays:
[1] = tested on: HCT-8 human ileocecal colorectal adenocarcinoma cell line; test: MTT cytotoxicity assay on HCT-8 cells; format: cell-based; settings: HCT-8
Protocol: (§1) HCT-8, fluorouracil-resistant HCT-8, fluorouracil-resistant LoVo cell lines were cultured in RPMI Medium 1640 medium containing 10% FBS and 1% penicillin/streptomycin. LoVo cell line was cultured in F-12K medium containing 10% FBS and 1% penicillin/streptomycin. All cell lines above were cultured at humidified atmosphere containing 5% CO2 at 37° C.
(§2) In the cytotoxicity assay, exponentially growing cells of each cancer cell line were plated in 96-well microplate at a density of 5000 cells per well in 100 μL of culture medium and allowed to adhere for 24 h before treatment. Serial concentrations of RNA molecules obtained in Example 1 to 4 in a mixture containing a gene delivery carrier, i.e. Lipofectamine™ RNAiMAX Transfection Reagent (Thermo Fisher Scientific, U.S.A.) were then added to the cells. After treated for 48 h, MTT solution (50 μL per well, 1 mg/mL solution) was added to each well and incubated for 4 h at 37° C. Subsequently, 200 μL dimethyl sulfoxide (DMSO) were added and the optical densities of the resulting solutions were calorimetrically determined at 570 nm using a SpectraMax 190 microplate reader (Molecular Devices, Sunnyvale, CA, U.S.A). Dose-response curves were obtained, and the IC50 values were calculated by GraphPad Prism 5 (GraphPad, La Jolla, CA, USA). Each experiment was carried out for three times. IC50 results were expressed as means±standard deviation.

[2] = tested on: HCT-8/5-FU (5-FU-resistant strain of HCT-8); test: MTT cytotoxicity assay on HCT-8/5-FU cells; format: cell-based, human
Protocol: as §1, §2

[3] = tested on: LoVo colorectal adenocarcinoma cell line; test: MTT cytotoxicity assay on LoVo cells; format: cell-based
Protocol: as §1, §2

[4] = tested on: LoVo/5-FU (5-FU-resistant strain of LoVo); test: MTT cytotoxicity assay on LoVo/5-FU cells; format: cell-based
Protocol: as §1, §2

[5] = tested on: HCT-8 cells; test: Clonogenic assay on HCT-8 cells; format: cell-based, human; settings: 50 nM, vs control group
Protocol: as §1
(§3) In the clonogenic assay, HCT-8 or LoVo cells were plated in 6-well microplate at a density of 1000 cells per well in 2 mL of culture medium and allowed to adhere for 24 h before treatment. Single concentration of RNA molecules obtained in Example 1 to 4 in a mixture containing a gene delivery carrier, i.e. Lipofectamine™ RNAiMAX Transfection Reagent (Thermo Fisher Scientific, U.S.A.) were then added to the cells. After treated for 48 h, discarded the drug solutions and replaced with 2 mL of fresh culture medium. After culture 14 days, discarded the culture medium and the cells were fixated with 4% paraformaldehyde fix solution for 20 min, followed by stained with crystal violet for 10 min and then washed by deionized water. The 6-well microplate was photographed and the number of colonies with more than 50 individual cells were counted using ImageJ software (U.S.A.). Each experiment was carried out for three times. Results were expressed as means±standard deviation.

[6] = tested on: LoVo cells; test: Clonogenic assay on LoVo cells; format: cell-based; settings: 25 nM, vs control group
Protocol: as §1, §3

[7] = tested on: HCT-8 cells; test: Wound-healing assay on HCT-8 cells; format: cell-based, human; settings: 50 nM, vs control group
Protocol: as §1
as §3, with “wound-healing” for “clonogenic”, “500,000” for “1000”, “[…]” for “Single concentration”, “[…] A 1 mL bacteria-free pipette tip was used to make a cross-scratch at the bottom of 6-well microplate. The cells in the scratch were washed away using phosphor buffer solution and the 6-well microplate was photographed under a microscope. Single concentration of RNA molecules obtained in Example 1 to 4 in a mixture containing a gene delivery carrier, i.e. Lipofectamine™ RNAiMAX Transfection Reagent (Thermo Fisher Scientific, U.S.A.) were then added to the cells. The cells were then photographed under microscope at 24 and 48 h. ImageJ software was applied to quantify the area of wound created. Each experiment was carried out for three times. Results were expressed as means±standard deviation.” for “deviation.”

[8] = tested on: LoVo cells; test: Wound-healing assay on LoVo cells; format: cell-based; settings: 25 nM, vs control group
Protocol: as §1
as §3, with “wound-healing” for “clonogenic”, “500,000” for “1000”, “[…]” for “Single concentration”, “[…] A 1 mL bacteria-free pipette tip was used to make a cross-scratch at the bottom of 6-well microplate. The cells in the scratch were washed away using phosphor buffer solution and the 6-well microplate was photographed under a microscope. Single concentration of RNA molecules obtained in Example 1 to 4 in a mixture containing a gene delivery carrier, i.e. Lipofectamine™ RNAiMAX Transfection Reagent (Thermo Fisher Scientific, U.S.A.) were then added to the cells. The cells were then photographed under microscope at 24 and 48 h. ImageJ software was applied to quantify the area of wound created. Each experiment was carried out for three times. Results were expressed as means±standard deviation.” for “deviation.”

EC83-M3 mimic: modified EC83 dsRNA; antisense SEQ ID NO: 3 GCCGAAG[s^4U]GGCGAAAUC[Gm]GUAG, sense SEQ ID NO: 6 CUACCGAUUUCGCCACUUCGGC (antisense GCCGAAGUGGCGAAAUCGGUAG; antisense: sugars from the 5' end r17 m1 r4, [s4U] at 8, backbone not given here; sense: RNA, backbone not given here; tRNA-derived fragment mimic duplex)
effect on growth and proliferation (FIGS. 7A, 7B) ([1]; 6.25-100 nM): dose-dependent effect on inhibiting the growth and proliferation | IC50 ([1]; MTT, 48 h treatment): 0.0745 µM | effect on growth and proliferation (FIGS. 7A, 7B) ([2]; 6.25-100 nM): dose-dependent effect on inhibiting the growth and proliferation | IC50 ([2]; MTT, 48 h treatment): 0.0722 µM | effect on growth and proliferation (FIGS. 7A, 7B) ([3]; 6.25-100 nM): dose-dependent effect on inhibiting the growth and proliferation | IC50 ([3]; MTT, 48 h treatment): 0.0241 µM | effect on growth and proliferation (FIGS. 7A, 7B) ([4]; 6.25-100 nM): dose-dependent effect on inhibiting the growth and proliferation | IC50 ([4]; MTT, 48 h treatment): 0.023 µM | colony number, inhibition of proliferation (FIG. 8A) [5]: significantly inhibit the proliferation | colony number, inhibition of proliferation (FIG. 8B) [6]: significantly inhibit the proliferation | wound area, inhibition of migration (FIG. 9A) [7]: significantly inhibit the migration | wound area, inhibition of migration (FIG. 9B) [8]: significantly inhibit the migration
